Test results from patent US20220031840A1, “Method of Treatment” (HaemaLogix Pty Ltd, priority 2018, published 2022).

Legend:
[1] = system: macrophage inhibitory factor (MIF); assay: Biomarker analysis: serum MIF; type: in vivo, human; conditions: adjusted for cytokine baseline differences
Experimental: Patient serum samples for biomarker analysis were collected approximately 30 minutes before infusion of kappamab and then at 6, 48, 192, and 1,080 hours after infusion for all patients. Samples were analysed in triplicate and serum levels of 48 human cytokines, chemokines, and growth factors were measured using the Bio-Plex Pro™ Human Cytokine 27-plex and 21-plex assays according to the manufacturer's recommendations (Bio-Rad, Carlsbad, Calif., USA; Cat No M10-0KCAF0Y, mg0-005KMII). Results were verified by repeating the 21-plex assay in triplicate and the samples were randomized across the assay plate. Pre-infusion samples were used as the baseline (t=0) for the analysis.
Multivariate analysis of the biomarker data was performed using R version 3.1.0 (2014-04-10) software (http://www.R-project.org/). Linear mixed effects modelling was completed using 1me4 (Bates et al. 2015). […]
To find significance between kappamab dose, time, and cytokine expression levels, we fitted a linear mixed-effects model that modelled cytokine fluorescence expression levels with fixed-effects terms for baseline cytokine fluorescence expression, kappamab dose (with 4 levels: 0.3, 1.0, 3.0, and 10 mg/kg), time (treated as factor with 5 levels), and cytokine with 48 levels, plus their interactions, with a random effect associated with patient (12 levels) and plex (2 levels). […]

urine κFLC = assay: 24-hour urine κFLC (FreeLite assay); type: in vivo, human
From the text: Serum FLC levels were quantified using the FreeLite™ assay (The Binding Site Group Ltd, Birmingham, UK). […] Twenty-four-hour urine collection for urine protein electrophoresis immunofixation, urine FLC measurement (FreeLite™ assay), and creatinine clearance were collected on the day of infusion and on Day 45.

kappamab: humanized form of K121 anti-KMA antibody; VH SEQ ID NO: 1, VL SEQ ID NO: 2
Change in serum concentration [1]: dose-related decreases
Patients with a decrease in urine κFLC (urine κFLC; Day 1, 8/12 patients): 67%
Patients with a decrease in urine κFLC (urine κFLC; Day 45 post infusion, 7/12 patients): 58%
Urine κFLC (urine κFLC; Patient 1, Day 1): 144 mg/24 hours
Urine κFLC percent change from baseline (urine κFLC; Patient 1, Day 1): −31%
Urine κFLC (urine κFLC; Patient 1, Day 45): 107 mg/24 hours
Urine κFLC percent change from baseline (urine κFLC; Patient 1, Day 45): −49%
Urine κFLC (urine κFLC; Patient 2, Day 1): 1902 mg/24 hours
Urine κFLC percent change from baseline (urine κFLC; Patient 2, Day 1): −27%
Urine κFLC percent change from baseline (urine κFLC; Patient 2, Day 45): −13%
Urine κFLC (urine κFLC; Patient 2, Day 45, exceeds upper limit of quantitation): > 2272 mg/24 hours
Urine κFLC (urine κFLC; Patient 3, Day 1): 1143 mg/24 hours
Urine κFLC percent change from baseline (urine κFLC; Patient 3, Day 1): −15%
Urine κFLC (urine κFLC; Patient 3, Day 45): 5964 mg/24 hours
Urine κFLC percent change from baseline (urine κFLC; Patient 3, Day 45): +343%
Urine κFLC (urine κFLC; Patient 4, Day 1): 24 mg/24 hours
Urine κFLC percent change from baseline (urine κFLC; Patient 4, Day 1): +85%
Urine κFLC (urine κFLC; Patient 4, Day 45): 18 mg/24 hours
Urine κFLC percent change from baseline (urine κFLC; Patient 4, Day 45): +38%
Urine κFLC (urine κFLC; Patient 5, Day 1): 31 mg/24 hours
Urine κFLC percent change from baseline (urine κFLC; Patient 5, Day 1): −68%
Urine κFLC (urine κFLC; Patient 5, Day 45): 103 mg/24 hours
Urine κFLC percent change from baseline (urine κFLC; Patient 5, Day 45): +6%
Urine κFLC (urine κFLC; Patient 6, Day 1): 38 mg/24 hours
Urine κFLC percent change from baseline (urine κFLC; Patient 6, Day 1): −17%
Urine κFLC (urine κFLC; Patient 6, Day 45): 45 mg/24 hours
Urine κFLC percent change from baseline (urine κFLC; Patient 6, Day 45): −2%
Urine κFLC (urine κFLC; Patient 7, Day 1): 390 mg/24 hours
Urine κFLC percent change from baseline (urine κFLC; Patient 7, Day 1): +25%
Urine κFLC (urine κFLC; Patient 7, Day 45): 286 mg/24 hours
Urine κFLC percent change from baseline (urine κFLC; Patient 7, Day 45): −8%
Urine κFLC (urine κFLC; Patient 8, Day 1): 34 mg/24 hours
Urine κFLC percent change from baseline (urine κFLC; Patient 8, Day 1): +278%
Urine κFLC (urine κFLC; Patient 8, Day 45): 25 mg/24 hours
Urine κFLC percent change from baseline (urine κFLC; Patient 8, Day 45): +178%
Urine κFLC (urine κFLC; Patient 9, Day 1): 49 mg/24 hours
Urine κFLC percent change from baseline (urine κFLC; Patient 9, Day 1): −13%
Urine κFLC (urine κFLC; Patient 9, Day 45): 39 mg/24 hours
Urine κFLC percent change from baseline (urine κFLC; Patient 9, Day 45): −30%
Urine κFLC (urine κFLC; Patient 10, Day 1): 13 mg/24 hours
Urine κFLC percent change from baseline (urine κFLC; Patient 10, Day 1): −69%
Urine κFLC (urine κFLC; Patient 10, Day 45): 40 mg/24 hours
Urine κFLC percent change from baseline (urine κFLC; Patient 10, Day 45): −5%
Urine κFLC (urine κFLC; Patient 12, Day 1): 297 mg/24 hours
Urine κFLC percent change from baseline (urine κFLC; Patient 12, Day 1): −9%
Urine κFLC (urine κFLC; Patient 12, Day 45): 363 mg/24 hours
Urine κFLC percent change from baseline (urine κFLC; Patient 12, Day 45): +11%
Urine κFLC (urine κFLC; Patient 13, Day 1): 166 mg/24 hours
Urine κFLC percent change from baseline (urine κFLC; Patient 13, Day 1): +12%
Urine κFLC (urine κFLC; Patient 13, Day 45): 29 mg/24 hours
Urine κFLC percent change from baseline (urine κFLC; Patient 13, Day 45): −80%
Dose-related trend in urinary excretion of κFLC (urine κFLC; within each dose cohort): no consistent dose-related trend
